Measurements reported in US11733142B2, “Antimicrobic susceptibility testing using digital microscopy” (Beckman Coulter, Inc., priority 2017, dated 2023).

Assays:
[1] = system: gram negative bacteria carrying the Klebsiella pneumonia carbapenemase (KPC) resistance mechanism; experiment: Growth pattern combined with fluorogenic pH test (MEU) to detect resistance and predict MIC; format: cell-based; conditions: predicted if pH changes in Meropenem well within 1-2 hours and the growth pattern is identified
Source text: The growth pattern information derived from optics system 9 may also be combined with a fluorogenic test measuring a change in pH to detect some mechanisms of resistance in the microbes being tested. As an example, one of the fluorogenic test substrates could be an antimicrobial agent. Degradation of the antimicrobial agent leads to a change in the pH of the medium within two hours after inoculation, and the pH change can be detected with an indicator that changes fluoresces with changes in pH. Combining the information on the growth patterns (cell count, area, and area/count), as described above, along with an indication that the antimicrobial agent has degraded provides a way to quickly ascertain if the microbe is resistant and helps to determine the MIC of the organism.
For example, the antibiotic Meropenem is enzymatically degraded by microbes such as gram negative bacteria carrying the Klebsiella pneumonia carbapenemase (KPC) resistance mechanism. If Meropenem is degraded, the medium drops in pH. The fluorogenic pH indicator, MEU (methyllumbeliferone) will change (decrease) in fluorescence with that change. This change occurs within 1 to 2 hours. […]

E. coli = experiment: Antimicrobic susceptibility testing (AST) by digital microscopy: count sum, area sum, area/count ratio; format: cell-based
Method: FIGS. 7-23 illustrate various features and steps of optimized AST method 101 (FIG. 19). In some versions, system 1 as discussed above may be used to facilitate some or all of the features provided in optimized AST method 101. Optimized AST method 101 includes performing an image analysis cycle 102 repetitively until a MIC is determined. FIG. 8 provides several exemplary digital microscopy parameters for use in optimized AST method 101. Test well 20 is embodied by a “384” style test well, having a clear viewing bottom. The volume of inoculum in test well 20 may be set to 20 microliters to reduce the amount of materials such as bulk diluents required by AST method 101 and/or minimize light artifacts and provide sampling of a consistent number of microbes from the 1:250 dilution of the 0.5 MacFarland inoculum. […] the volume of inoculum in test well 20 generally increases the light artifacts. In some instances, capturing a single vertical plane 103 at 20× objective whereby AST camera 35 is set at 0.33 microns/pixel may be sufficient for sampling the inoculum and ensuring that each individual microbe is recognizable. However, these parameters are configurable and may change as desired by the user or the underlying needs of the system. Capturing three focal sites spaced about 5 microns apart within single vertical plane 103 may also provide a sufficient number of microbes in the sample to count for use in optimized AST method 101. These three focal sites are labeled site 105, site 107, and site 109 in FIG. 8. In an exemplary version of optimized AST method 101, each focal site is approximately 700×700 microns within single vertical plane 103, rather than capturing three sites in three different vertical planes. AST camera 35, optics system 9, and computer 49 are configured to capture an image of each focal site in consecutive time periods, manipulate each of these images, and thereafter use the data derived from these manipulated images to make a MIC determination. Image analysis cycle 102 is generally depicted in FIG. 9 and comprises an image capture step 111, an image enhancement step 113, an image segmentation step 115, and an object counting step 117. Optimized AST method 101 includes performing image analysis cycle 102 repetitively until a MIC is determined. Image analysis cycle 102 utilizes one or more instances of computer 49 and the various elements thereof to perform image capture step 111, image enhancement step 113, image segmentation step 115, and object counting step 117, as well as any sub steps provided therein. Once image segmentation step 115 generates segmented image 143, image segmentation step 115 proceeds to object counting step 117. In object counting step 117, the background and foreground pixels are considered to derive information regarding the number of microbes in the sample, the area occupied by the microbes in the sample, and the ratio between the number of microbes and the area occupied by the microbes. In some versions of object counting step 117, the actual microbe count is compared with an average microbe count to determine if an error occurred within the image capture process. The comparison may incorporate a standard deviation with the average microbe count to generalize the microbe comparison. Object counting step 117 may be configured to derive information regarding the ratio between the total area occupied by all of the microbes in the image and the total count of microbes. This information may be useful by determining whether the microbes are undergoing elongation over time. Elongation is a precursor to death and indicates the concentration of the antimicrobic dilution is negatively affecting the microbes. More specifically, elongation may occur when microbes such as bacteria encounter an effective amount of antibiotic drugs. Once object counting step 117 derives the desired information from segmented image 143, image analysis cycle 102 terminates. […]

In the case of `C[C@@H](O)[C@H]1C(=O)N2C(C(=O)O)=C(S[C@@H]3CN[C@H](C(=O)N(C)C)C3)[C@H](C)[C@H]12` [Meropenem], the MIC [1] is reported as “greater than 1 mcg/ml”.

`CO/N=C(\C(=O)N[C@@H]1C(=O)N2C(C(=O)[O-])=C(C[N+]3(C)CCCC3)CS[C@H]12)c1csc(N)n1` [Cefepime] was tested, and the MIC (E. coli; E. coli sample, bacteria count data at around the 200-minute mark (FIG. 21)) was 0.06 µg/mL and the MIC (E. coli; E. coli sample, ratio data at around the 120-minute mark (FIG. 22)) was 0.06 µg/mL.

In the case of `CO/N=C(\C(=O)N[C@@H]1C(=O)N2C(C(=O)O)=C(CSc3nc(=O)c(=O)[nH]n3C)CS[C@H]12)c1csc(N)n1` [Cax], the “effect on bacteria count” value (E. coli; E. coli sample, Cax 0.12 dilution compared with Growth sample (FIG. 20A)) is reported as “no effect”, the MIC (E. coli; E. coli sample, from count sum data (FIG. 20A)) is reported as 0.25 µg/mL and the “area/count ratio (elongation spike)” value (E. coli; E. coli, Cax 0.25 and higher dilutions (FIG. 20C), No Growth line approximately 4.0) is reported as “above 8.0”. The “minimum amount of antibiotic to have the desired effect on the area occupied by the bacteria” value (E. coli; E. coli, from area sum data (FIG. 20B)) was 0.25 and the MIC (E. coli; E. coli, from area/count ratio data, elongation spike (FIG. 20C)) was 0.25 µg/mL.

With `CC1(C)S[C@@H]2[C@H](NC(=O)[C@H](N)c3ccccc3)C(=O)N2[C@H]1C(=O)O` [ampicillin] the “growth morphology after exposure” value (E. coli; E. coli exposed to a dilution of ampicillin (FIG. 17) vs free from ampicillin (FIG. 18)) was “abnormal growth in the form of elongation”.
